PubChem BioAssay AID2060618 (Molecular Pharmacology Branch, DTP, NCI, 2025)
Several values for one entry are separate records, joined by “and”; a condition that tells them apart may be missing. Equal entries are not always repeated.

System: 454973-116-R2-J3-PDC spheroids, percent test/control viability
Assay: Anticancer human tumor 454973-116-R2-J3-PDC patient-derived pancreatic carcinoma cell line growth inhibition [CLK]
Conditions: spheroids with HUVEC and MSC; for viability, T/C: stronger effect = lower value; active means viability on the fitted dose curve at most 10% of control; inactive means the rest
Procedure, shortened: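 Patient-derived tumor cells grown as complex spheroids with HUVEC endothelial cells and mesenchymal stem cells, treated with drug combinations. Concentrations descend in half-log steps from near clinical Cmax, or from 10 microM if Cmax unknown.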

[1] = curve of first compound, second compound 0.0316 µM
[2] = curve of first compound, second compound 0.1 µM
[3] = curve of first compound, second compound 0.316 µM
[4] = curve of first compound, second compound 1 µM
[5] = curve of first compound, second compound 3.16 µM
[6] = curve of first compound, second compound 10 µM
[7] = second compound 0.0316 µM, first compound 0.0316 µM
[8] = second compound 0.0316 µM, first compound 0.1 µM
[9] = second compound 0.0316 µM, first compound 0.316 µM
[10] = second compound 0.0316 µM, first compound 1 µM
[11] = second compound 0.0316 µM, first compound 3.16 µM
[12] = second compound 0.0316 µM, first compound 10 µM
[13] = second compound 0.1 µM, first compound 0.0316 µM
[14] = second compound 0.1 µM, first compound 0.1 µM
[15] = second compound 0.1 µM, first compound 0.316 µM
[16] = second compound 0.1 µM, first compound 1 µM
[17] = second compound 0.1 µM, first compound 3.16 µM
[18] = second compound 0.1 µM, first compound 10 µM
[19] = second compound 0.316 µM, first compound 0.0316 µM
[20] = second compound 0.316 µM, first compound 0.1 µM
[21] = second compound 0.316 µM, first compound 0.316 µM
[22] = second compound 0.316 µM, first compound 1 µM
[23] = second compound 0.316 µM, first compound 3.16 µM
[24] = second compound 0.316 µM, first compound 10 µM
[25] = second compound 1 µM, first compound 0.0316 µM
[26] = second compound 1 µM, first compound 0.1 µM
[27] = second compound 1 µM, first compound 0.316 µM
[28] = second compound 1 µM, first compound 1 µM
[29] = second compound 1 µM, first compound 3.16 µM
[30] = second compound 1 µM, first compound 10 µM
[31] = second compound 3.16 µM, first compound 0.0316 µM
[32] = second compound 3.16 µM, first compound 0.1 µM
[33] = second compound 3.16 µM, first compound 0.316 µM
[34] = second compound 3.16 µM, first compound 1 µM
[35] = second compound 3.16 µM, first compound 3.16 µM
[36] = second compound 3.16 µM, first compound 10 µM
[37] = second compound 10 µM, first compound 0.0316 µM
[38] = second compound 10 µM, first compound 0.1 µM
[39] = second compound 10 µM, first compound 0.316 µM
[40] = second compound 10 µM, first compound 1 µM
[41] = second compound 10 µM, first compound 3.16 µM
[42] = second compound 10 µM, first compound 10 µM
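Further: spheroids exposed to compounds for 7 days before readout.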

C#Cc1c(F)ccc2cc(O)cc(-c3ncc4c(N5CC6CCC(C5)N6)nc(OCC56CCCN5CC(F)C6)nc4c3F)c12 (stereo not drawn) + CNC(=O)c1ccc(Nc2nc(OC3CCCC3)c3c(-c4ccc5nc(C)oc5c4)c[nH]c3n2)c(OC)c1
active: viability, T/C [30] 7.84% | viability, T/C [34] 11.3% | viability, T/C [35] 9.18% | viability, T/C [36] 6.34% | viability, T/C [41] 10.3% | viability, T/C [42] 5.25%
< 31.6 nM: IC50 [3] | IC50 [4] | IC50 [5] | IC50 [6]
40.1 nM: IC50 [1]
35 nM: IC50 [2]
inactive: viability, T/C [7] 52.8% | viability, T/C [8] 41.1% | viability, T/C [9] 32.7% | viability, T/C [10] 32.5% | viability, T/C [11] 29.4% | viability, T/C [12] 22.4% | viability, T/C [13] 50.7% | viability, T/C [14] 43.8% | viability, T/C [15] 33.5% | viability, T/C [16] 27.5% | viability, T/C [17] 26% | viability, T/C [18] 15.1% | viability, T/C [19] 37.8% | viability, T/C [20] 30.9% | viability, T/C [21] 19.4% | viability, T/C [22] 12.7% | viability, T/C [23] 13.8% | viability, T/C [24] 12.1% | viability, T/C [25] 16.7% | viability, T/C [26] 12.7% | viability, T/C [27] 12.2% | viability, T/C [28] 12.7% | viability, T/C [29] 10.9% | viability, T/C [31] 15.9% | viability, T/C [32] 12.7% | viability, T/C [33] 11.3% | viability, T/C [37] 17.9% | viability, T/C [38] 12.4% | viability, T/C [39] 11.5% | viability, T/C [40] 12%

Nc1ccccc1NC(=O)c1ccc(CNC(=O)OCc2cccnc2)cc1 + CN1CCN(c2cc(C(=O)Nc3cc4cc(-c5cnn(C)c5)ccc4cn3)ccn2)CC1
1140 nM: IC50 [2]
inactive: viability, T/C [7] 95.7% | viability, T/C [8] 92.8% | viability, T/C [9] 89.9% | viability, T/C [10] 74.2% | viability, T/C [11] 36.7% | viability, T/C [12] 10.9% | viability, T/C [13] 73.5% | viability, T/C [14] 76.7% | viability, T/C [15] 60.5% | viability, T/C [16] 57.6% | viability, T/C [17] 24.1%
< 31.6 nM: IC50 [3] | IC50 [4] | IC50 [5] | IC50 [6]
2100 nM: IC50 [1]
active: viability, T/C [18] 2.49% | viability, T/C [19] 1.31% | viability, T/C [20] 1.59% | viability, T/C [21] 0.45% | viability, T/C [22] 2.31% | viability, T/C [23] 0.06% | viability, T/C [24] 0.18% | viability, T/C [25] 0.11% | viability, T/C [26] 0.84% | viability, T/C [27] 0.11% | viability, T/C [28] 0.08% | viability, T/C [29] 0.05% | viability, T/C [30] 0.07% | viability, T/C [31] 0.13% | viability, T/C [32] 0.33% | viability, T/C [33] 0.2% | viability, T/C [34] 0.11% | viability, T/C [35] 0.1% | viability, T/C [36] 0.77% | viability, T/C [37] 0.13% | viability, T/C [38] 0.68% | viability, T/C [39] 0.22% | viability, T/C [40] 0.29% | viability, T/C [41] 0.22% | viability, T/C [42] 0.18%

CC(C)CC(NC(=O)C(Cc1ccccc1)NC(=O)c1cnccn1)B(O)O (stereo not drawn) + CN1CCN(c2cc(C(=O)Nc3cc4cc(-c5cnn(C)c5)ccc4cn3)ccn2)CC1
3.31 nM: IC50 [1]
inactive: viability, T/C (second compound 0.0316 µM, first compound 0.000949 µM) 94.4% | viability, T/C (second compound 0.0316 µM, first compound 0.003 µM) 54.7% | viability, T/C (second compound 0.1 µM, first compound 0.000949 µM) 73.7% | viability, T/C (second compound 0.1 µM, first compound 0.003 µM) 14.8%
< 0.949 nM: IC50 [3] | IC50 [4] | IC50 [5] | IC50 [6]
1.5 nM: IC50 [2]
active: viability, T/C (second compound 0.0316 µM, first compound 0.00949 µM) 0.27% | viability, T/C (second compound 0.0316 µM, first compound 0.03 µM) 0.3% | viability, T/C (second compound 0.0316 µM, first compound 0.0949 µM) 0.17% | viability, T/C (second compound 0.0316 µM, first compound 0.3 µM) 0.14% | viability, T/C (second compound 0.1 µM, first compound 0.00949 µM) 0.41% | viability, T/C (second compound 0.1 µM, first compound 0.03 µM) 0.19% | viability, T/C (second compound 0.1 µM, first compound 0.0949 µM) 0.16% | viability, T/C (second compound 0.1 µM, first compound 0.3 µM) 0.14% | viability, T/C (second compound 0.316 µM, first compound 0.000949 µM) 2.21% | viability, T/C (second compound 0.316 µM, first compound 0.003 µM) 0.7% | viability, T/C (second compound 0.316 µM, first compound 0.00949 µM) 1.43% | viability, T/C (second compound 0.316 µM, first compound 0.03 µM) 0.12% | viability, T/C (second compound 0.316 µM, first compound 0.0949 µM) 0.11% | viability, T/C (second compound 0.316 µM, first compound 0.3 µM) 0.09% | viability, T/C (second compound 1 µM, first compound 0.000949 µM) 0.12% | viability, T/C (second compound 1 µM, first compound 0.003 µM) 0.19% | viability, T/C (second compound 1 µM, first compound 0.00949 µM) 0.09% | viability, T/C (second compound 1 µM, first compound 0.03 µM) 0.05% | viability, T/C (second compound 1 µM, first compound 0.0949 µM) 0.07% | viability, T/C (second compound 1 µM, first compound 0.3 µM) 0.07% | viability, T/C (second compound 3.16 µM, first compound 0.000949 µM) 0.16% | viability, T/C (second compound 3.16 µM, first compound 0.003 µM) 1.02% | viability, T/C (second compound 3.16 µM, first compound 0.00949 µM) 0.07% | viability, T/C (second compound 3.16 µM, first compound 0.03 µM) 0.05% | viability, T/C (second compound 3.16 µM, first compound 0.0949 µM) 0.6% | viability, T/C (second compound 3.16 µM, first compound 0.3 µM) 0.79% | viability, T/C (second compound 10 µM, first compound 0.000949 µM) 0.09% | viability, T/C (second compound 10 µM, first compound 0.003 µM) 0.13% | viability, T/C (second compound 10 µM, first compound 0.00949 µM) 0.88% | viability, T/C (second compound 10 µM, first compound 0.03 µM) 0.09% | viability, T/C (second compound 10 µM, first compound 0.0949 µM) 0.16% | viability, T/C (second compound 10 µM, first compound 0.3 µM) 0.17%

Nc1ccn(C2OC(CO)C(O)C2(F)F)c(=O)n1 (stereo not drawn)
11% and 7.61%: viability, T/C (compound 0.0316 µM)
active: viability, T/C (compound 0.1 µM) 8.58% and 9.53% | viability, T/C (compound 0.316 µM) 8.12% and 7.99% | viability, T/C (compound 1 µM) 10.4% and 8.26% | viability, T/C (compound 3.16 µM) 9.96% and 7.45% | viability, T/C (compound 10 µM) 9.46% and 9.19%
< 31.6 nM: IC50 (curve of compound)
